In US8946478B2, “Benzamide derivative with anticancer activity and preparation method and use thereof” (Zhejiang Hisun Pharmaceutical Co., Ltd., priority 2010, dated 2015):

Tested on: 18 tumor cell strains
Assay: In vitro efficacy screening, summary over the tumor cell strains
Type: cell-based, human

C#Cc1ccc(C(N)=O)cc1[N+](=O)[O-] [Compound I-1, 4-ethynyl-3-nitrobenzamide]
efficacy relative to the positive drug BSI-201 (in the measured 18 tumor cell strains): 10 times
inhibitory effects on tumor cell proliferation (in words) (in vitro screening, BSI-201 as positive drug): have inhibitory effects on tumor cell proliferation
